Numbers after ± are expanded uncertainties.
Conditions: 101.33 kPa, Liquid; for mass density: UV imaging technique; for viscosity: oscillations around equilibria

SMILES: [Ir] [iridium]
- mass density (2300 K): 19856 ± 400 kg/m3
- mass density (2350 K): 19814 ± 400 kg/m3
- viscosity (2373 K): 8.47 ± 0.85 mPa·s
- viscosity (2398 K): 8.34 ± 0.83 mPa·s
- mass density (2400 K): 19771 ± 400 kg/m3
- viscosity (2423 K): 8.21 ± 0.82 mPa·s
- viscosity (2448 K): 8.08 ± 0.81 mPa·s
- mass density (2450 K): 19729 ± 400 kg/m3
- viscosity (2473 K): 7.97 ± 0.8 mPa·s
- viscosity (2498 K): 7.85 ± 0.79 mPa·s
- mass density (2500 K): 19686 ± 390 kg/m3
- viscosity (2523 K): 7.74 ± 0.77 mPa·s
- viscosity (2548 K): 7.63 ± 0.76 mPa·s
- mass density (2550 K): 19644 ± 390 kg/m3
- viscosity (2573 K): 7.53 ± 0.75 mPa·s
- viscosity (2598 K): 7.42 ± 0.74 mPa·s
- mass density (2600 K): 19601 ± 390 kg/m3
- viscosity (2623 K): 7.33 ± 0.73 mPa·s
- viscosity (2648 K): 7.23 ± 0.72 mPa·s
- mass density (2650 K): 19559 ± 390 kg/m3
- viscosity (2673 K): 7.14 ± 0.71 mPa·s
- viscosity (2698 K): 7.05 ± 0.71 mPa·s
- mass density (2700 K): 19516 ± 390 kg/m3
- viscosity (2723 K): 6.97 ± 0.7 mPa·s
- viscosity (2748 K): 6.88 ± 0.69 mPa·s
- mass density (2750 K): 19474 ± 390 kg/m3
- viscosity (2773 K): 6.8 ± 0.68 mPa·s
- mass density (2800 K): 19431 ± 390 kg/m3
- mass density (2850 K): 19389 ± 390 kg/m3
- mass density (2900 K): 19346 ± 390 kg/m3
- mass density (2950 K): 19304 ± 390 kg/m3
- mass density (3000 K): 19261 ± 380 kg/m3

From the NIST ThermoML archive (doi:10.1007/s10765-005-5585-3)
